In PubChem BioAssay AID2060909 (Molecular Pharmacology Branch, DTP, NCI, 2025):

Tested on: 362531-283-R-J2-PDC complex spheroid viability
Experiment: Anticancer human tumor 362531-283-R-J2-PDC patient-derived colon adenocarcinoma cell line growth inhibition [RAS]
Conditions: for IC50: curve of first compound; for viability, T/C: stronger effect = lower value; active = viability on the fitted dose curve at most 10% of control; inactive = the rest
How it was run: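 Agents were tested in combination matrices in half-log decrements from a top concentration at or near clinical Cmax (10 microM if undetermined). Targets were multi-cell spheroids of tumour lines plus HUVEC and MSC stromal cells.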

[1] = second compound 0.000949 µM, first compound 0.00316 µM
[2] = second compound 0.000949 µM, first compound 0.01 µM
[3] = second compound 0.000949 µM, first compound 0.0316 µM
[4] = second compound 0.000949 µM, first compound 0.1 µM
[5] = second compound 0.000949 µM, first compound 0.316 µM
[6] = second compound 0.000949 µM, first compound 1 µM
[7] = second compound 0.003 µM, first compound 0.00316 µM
[8] = second compound 0.003 µM, first compound 0.01 µM
[9] = second compound 0.003 µM, first compound 0.0316 µM
[10] = second compound 0.003 µM, first compound 0.1 µM
[11] = second compound 0.003 µM, first compound 0.316 µM
[12] = second compound 0.003 µM, first compound 1 µM
[13] = second compound 0.00949 µM, first compound 0.00316 µM
[14] = second compound 0.00949 µM, first compound 0.01 µM
[15] = second compound 0.00949 µM, first compound 0.0316 µM
[16] = second compound 0.00949 µM, first compound 0.1 µM
[17] = second compound 0.00949 µM, first compound 0.316 µM
[18] = second compound 0.00949 µM, first compound 1 µM
[19] = second compound 0.03 µM, first compound 0.00316 µM
[20] = second compound 0.03 µM, first compound 0.01 µM
[21] = second compound 0.03 µM, first compound 0.0316 µM
[22] = second compound 0.03 µM, first compound 0.1 µM
[23] = second compound 0.03 µM, first compound 0.316 µM
[24] = second compound 0.03 µM, first compound 1 µM
[25] = second compound 0.0949 µM, first compound 0.00316 µM
[26] = second compound 0.0949 µM, first compound 0.01 µM
[27] = second compound 0.0949 µM, first compound 0.0316 µM
[28] = second compound 0.0949 µM, first compound 0.1 µM
[29] = second compound 0.0949 µM, first compound 0.316 µM
[30] = second compound 0.0949 µM, first compound 1 µM
[31] = second compound 0.3 µM, first compound 0.00316 µM
[32] = second compound 0.3 µM, first compound 0.01 µM
[33] = second compound 0.3 µM, first compound 0.0316 µM
[34] = second compound 0.3 µM, first compound 0.1 µM
[35] = second compound 0.3 µM, first compound 0.316 µM
[36] = second compound 0.3 µM, first compound 1 µM
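Note: spheroids exposed to the agents for 7 days before readout.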
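Throughout, for viability, T/C: luminescence viability as percent of DMSO vehicle control wells.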

C=CC(=O)Nc1cc(Nc2nccc(-c3cn(C)c4ccccc34)n2)c(OC)cc1N(C)CCN(C)C + CCn1c(-c2cccnc2C(C)OC)c2c3cc(ccc31)N1CCOC(CC(NC(=O)C(C(C)C)N(C)C(=O)C3(F)CCN(C(=O)C#CC(C)(C)N(C)C)CC3)C(=O)N3CCCC(N3)C(=O)OCC(C)(C)C2)C1
inactive: viability, T/C [1] 92.4% | viability, T/C [2] 93.8% | viability, T/C [3] 104% | viability, T/C [4] 98.1% | viability, T/C [5] 98% | viability, T/C [6] 75.1% | viability, T/C [7] 108% | viability, T/C [8] 107% | viability, T/C [9] 103% | viability, T/C [10] 98.6% | viability, T/C [11] 95.4% | viability, T/C [12] 68.8% | viability, T/C [13] 112% | viability, T/C [14] 103% | viability, T/C [15] 101% | viability, T/C [16] 104% | viability, T/C [17] 101% | viability, T/C [18] 82.2% | viability, T/C [19] 98.6% | viability, T/C [20] 99.9% | viability, T/C [21] 100% | viability, T/C [22] 101% | viability, T/C [23] 101% | viability, T/C [24] 82.7% | viability, T/C [25] 98.4% | viability, T/C [26] 97.1% | viability, T/C [27] 99% | viability, T/C [28] 106% | viability, T/C [29] 106% | viability, T/C [30] 79.2% | viability, T/C [31] 91.3% | viability, T/C [32] 90.1% | viability, T/C [33] 99.6% | viability, T/C [34] 96.6% | viability, T/C [35] 104% | viability, T/C [36] 83.6%
> 1 µM: IC50 (second compound 0.000949 µM) | IC50 (second compound 0.003 µM) | IC50 (second compound 0.00949 µM) | IC50 (second compound 0.03 µM) | IC50 (second compound 0.0949 µM) | IC50 (second compound 0.3 µM)

CC(Nc1ccc2c(c1)OCCn1cc(N3C(=O)OCC3C(F)F)nc1-2)C(N)=O (stereo unspecified) + CCn1c(-c2cccnc2C(C)OC)c2c3cc(ccc31)N1CCOC(CC(NC(=O)C(C(C)C)N(C)C(=O)C3(F)CCN(C(=O)C#CC(C)(C)N(C)C)CC3)C(=O)N3CCCC(N3)C(=O)OCC(C)(C)C2)C1
1.51 µM: IC50 (second compound 0.3 µM)
1.29 µM: IC50 (second compound 0.003 µM)
1.68 µM: IC50 (second compound 0.00949 µM)
1.65 µM: IC50 (second compound 0.0949 µM)
2.09 µM: IC50 (second compound 0.03 µM)
inactive: viability, T/C [3] 103% | viability, T/C [4] 107% | viability, T/C [5] 92.1% | viability, T/C [6] 59.6% | viability, T/C (second compound 0.000949 µM, first compound 3.16 µM) 34.2% | viability, T/C (second compound 0.000949 µM, first compound 10 µM) 29% | viability, T/C [9] 106% | viability, T/C [10] 95.5% | viability, T/C [11] 92.9% | viability, T/C [12] 52.4% | viability, T/C (second compound 0.003 µM, first compound 3.16 µM) 36.8% | viability, T/C (second compound 0.003 µM, first compound 10 µM) 24.4% | viability, T/C [15] 95.4% | viability, T/C [16] 106% | viability, T/C [17] 87.8% | viability, T/C [18] 62.4% | viability, T/C (second compound 0.00949 µM, first compound 3.16 µM) 35.7% | viability, T/C (second compound 0.00949 µM, first compound 10 µM) 28.4% | viability, T/C [21] 98.4% | viability, T/C [22] 96.5% | viability, T/C [23] 87.1% | viability, T/C [24] 65.3% | viability, T/C (second compound 0.03 µM, first compound 3.16 µM) 41.7% | viability, T/C (second compound 0.03 µM, first compound 10 µM) 24.9% | viability, T/C [27] 93.9% | viability, T/C [28] 91.4% | viability, T/C [29] 88.5% | viability, T/C [30] 60.5% | viability, T/C (second compound 0.0949 µM, first compound 3.16 µM) 36.1% | viability, T/C (second compound 0.0949 µM, first compound 10 µM) 24.5% | viability, T/C [33] 93.4% | viability, T/C [34] 85.5% | viability, T/C [35] 83% | viability, T/C [36] 56.9% | viability, T/C (second compound 0.3 µM, first compound 3.16 µM) 36.6% | viability, T/C (second compound 0.3 µM, first compound 10 µM) 28%
1.53 µM: IC50 (second compound 0.000949 µM)

O=C(c1ccc(F)c(F)c1Nc1ccc(I)cc1F)N1CC(O)([C@@H]2CCCCN2)C1 + CCn1c(-c2cccnc2C(C)OC)c2c3cc(ccc31)N1CCOC(CC(NC(=O)C(C(C)C)N(C)C(=O)C3(F)CCN(C(=O)C#CC(C)(C)N(C)C)CC3)C(=O)N3CCCC(N3)C(=O)OCC(C)(C)C2)C1
0.604 µM: IC50 (second compound 0.3 µM)
0.573 µM: IC50 (second compound 0.00949 µM)
0.537 µM: IC50 (second compound 0.003 µM)
0.58 µM: IC50 (second compound 0.0949 µM)
inactive: viability, T/C [1] 94% | viability, T/C [2] 94.9% | viability, T/C [3] 101% | viability, T/C [4] 91.3% | viability, T/C [5] 88% | viability, T/C [6] 24.4% | viability, T/C [7] 102% | viability, T/C [8] 108% | viability, T/C [9] 107% | viability, T/C [10] 83.2% | viability, T/C [11] 81.8% | viability, T/C [12] 18.4% | viability, T/C [13] 86% | viability, T/C [14] 108% | viability, T/C [15] 102% | viability, T/C [16] 88.8% | viability, T/C [17] 82.1% | viability, T/C [18] 20.9% | viability, T/C [19] 97.7% | viability, T/C [20] 98.6% | viability, T/C [21] 104% | viability, T/C [22] 91.2% | viability, T/C [23] 99% | viability, T/C [24] 26.4% | viability, T/C [25] 105% | viability, T/C [26] 103% | viability, T/C [27] 103% | viability, T/C [28] 81.8% | viability, T/C [29] 86.8% | viability, T/C [30] 22.3% | viability, T/C [31] 89% | viability, T/C [32] 90.8% | viability, T/C [33] 99% | viability, T/C [34] 82% | viability, T/C [35] 88.2% | viability, T/C [36] 20.3%
0.628 µM: IC50 (second compound 0.000949 µM)
0.684 µM: IC50 (second compound 0.03 µM)
